# Source: patent publication US20250302903A1, “COMPOSITION FOR PREVENTION AND TREATMENT OF MUSCLE DISEASE, CONTAINING MAGNOLIA OFFICINALIS EXTRACT AS ACTIVE INGREDIENT” (TWINPIGBIOLAB INC., priority 2022, published 2025)
# Experiments:
# [1] = test system: mouse colon cancer cell line CT26; assay: Anti-tumor activity of cisplatin in the CT26 colon cancer-bearing mouse model; type: in vivo; details: cisplatin alone; CT26 s.c. 3×10^5 per mouse
# Experimental: To confirm whether administration of the Magnolia officinalis extract interfered with the anti-tumor activity of cisplatin, a mouse colon cancer cell line CT26 (Korean Cell Line Bank, 80009; Seoul, Korea) was injected subcutaneously at 3×10^5 per mouse to fabricate a colon cancer-bearing mouse model, and then treated with cisplatin or cisplatin+Magnolia officinalis extract (200 mg/kg), and the size (volume) and weight of tumor were measured every 3 days.
# [2] = test system: cisplatin-induced sarcopenia mouse model; assay: Leg weight and tibialis anterior (TA) muscle mass on day 42, cisplatin-induced skeletal muscle wasting; type: in vivo, mice (C57BL/6); details: vs cisplatin group
# Experimental: In order to confirm an effect of a Magnolia officinalis extract on cisplatin-induced skeletal muscle wasting, the leg weight and tibialis anterior (TA) muscle mass of each group were measured on day 42 of the experiment.
# [3] = test system: cisplatin-induced sarcopenia mouse model
# Experimental: Specifically, mice (C57BL/6, 7 to 8 weeks old) (Jackson Laboratories, Raon Bio, Gyeonggi) were randomly caged and raised in a regulated environment with free access to food and water with a 12-hour light/dark cycle, and then on days 1 to 5 and days 26 to 30, cisplatin (Sigma-Aldrich, P4394; St. Louis, MO, USA) (2.5 mg/kg) dissolved at 1 mg/mL in physiological saline was injected intraperitoneally once daily (sarcopenia mouse model), M.C (50, 100 and 200 mg/kg) were administered orally every 3 days (total of 12 times).
# [4] = test system: cisplatin-induced sarcopenia mouse model; assay: Grip strength (forelimb and all limbs) by digital force gauge; type: in vivo, mice (C57BL/6); details: M.C 100 and 200 mg/kg; magnolol 10 mg/kg i.p.
# Experimental: To determine the effect of the Magnolia officinalis extract on cisplatin-induced grip strength reduction, muscle strength of all limbs and muscle strength of forelimb were measured using a digital force gauge (DS2-5N; IMADA Inc., Northbrook, IL, USA). The muscle strength was measured by pulling the mouse's tail downward 5times and recording the peak tension when the mouse released its foot, and repeated 3 times at 10-minute intervals, and the average of 5 values was used for calculation.
# [5] = test system: cells expressing both CD68 and IGF-1; assay: Immunohistochemistry of CD68 and IGF-1 in TA muscle sections; type: in vivo, mice (C57BL/6); details: per image area
# Experimental: It was confirmed whether […], which shifted the polarization of a macrophage phenotype from M2a to M2c (macrophages involved in extracellular matrix remodeling and muscle healing), and the number of macrophages were affected in skeletal muscle by administration of a Magnolia officinalis extract. Specifically, the TA muscle tissue sections of Example 4-3 were incubated overnight with a primary antibody, rat anti-mouse CD68 antibody (1:250; MCA1957GA; Bio-Rad, Contra Costa County, CA, USA) and rabbit anti-mouse IGF-1 antibody (1:500; 40657; Abcam, Cambridge, UK), and then incubated for 30 minutes with a secondary antibody, Alexa Fluor 488-conjugated goat anti-rat immunoglobulin IgG (A11006; Invitrogen, Carls-bad, CA, USA) and Alexa Fluor 594-conjugated goat anti-rabbit IgG (A32740; Invitrogen, Carlsbad, CA, USA). Thereafter, the sections were mounted using mounting media containing 4′,6-diamidino-2-phenylindole (DAPI) (H-1200, Vector, Torrance, CA, USA), and then imaged under a confocalator microscope (FV10C-PSU; Olympus Corporation, Tokyo, Japan). In the captured images, the numbers of IGF-I (red), CD68 (macrophage) (green), and DAPI (blue) positive cells per image area were measured in at least five random fields.
Structure (SMILES),tumor growth (size and weight) [1],TA muscle mass reduction induced by cisplatin [2],leg weight reduction induced by cisplatin [2],"cisplatin-induced rapid weight loss (body weight, A of FIG. 2) ([3]; M.C 50, 100 and 200 mg/kg orally every 3 days (12 times), magnolol 10 mg/kg i.p. every 3 days, vs CIS+PBS)",changes in weight on the last and first days (B of FIG. 2) ([3]; M.C orally or magnolol 10 mg/kg i.p. vs cisplatin group),pulling force power (grip strength) compared to the cisplatin administered group [4],number of cells expressing both CD68 and IGF-1 [5]
N.N.[Cl][Pt][Cl] [cisplatin],significantly reduced tumor growth,–,–,–,–,–,–
C=CCc1ccc(O)c(-c2cc(CC=C)ccc2O)c1 [magnolol],–,significantly alleviated,significantly alleviated,significantly alleviated,significant reduction in weight loss,significantly increased,increased
